# Organism: Rattus norvegicus
# Experiment: Open TG-GATES - Regimen: Single
# Type: toxicity, organism-based, Sprague-Dawley
# Parameters: regimen Single, gender Male, age 6 weeks
# Details: in vivo, po, 0 mg/kg, route gavage, dose level Control; for APTT / Bas / Eos / Fbg / Hb / Ht / Lym / MCH / MCHC / MCV / Mono / Neu / PT / Plat / RBC / Ret / WBC: tissue Blood; for KIDNEY_L / KIDNEY_R / KIDNEY_TOTAL: tissue Kidney; for LIVER: tissue Liver; for A/G / ALP / ALT / AST / BUN / CRE / Ca / Cl / DBIL / GLC / IP / K / LDH / Na / PL / RALB / TBIL / TC / TG / TP / gamma-GTP: tissue Plasma
compound,measurement,setting,value
Nc1ccc(Cc2ccc(N)cc2)cc1,TERMINAL_BW,3 h,209.4 g
same,APTT,3 h,13.9 s
same,Bas,3 h,0%
same,Eos,3 h,0.6%
same,Fbg,3 h,263.2 mg/dL
same,Hb,3 h,12.7 g/dL
same,Ht,3 h,37.3%
same,Lym,3 h,73.6%
same,MCH,3 h,21.8 pg
same,MCHC,3 h,34.1%
same,MCV,3 h,63.9 fL
same,Mono,3 h,3%
same,Neu,3 h,21.2%
same,PT,3 h,11.7 s
same,Plat,3 h,145.5 x10_4/uL
same,RBC,3 h,584.2 x10_4/ul
same,Ret,3 h,9.5%
same,WBC,3 h,100 x10_2/uL
same,KIDNEY_L,3 h,0.9 g
same,KIDNEY_R,3 h,0.9 g
same,KIDNEY_TOTAL,3 h,1.8 g
same,LIVER,3 h,9.5 g
same,A/G,3 h,0.8
same,ALP,3 h,1787.8 IU/L
same,ALT,3 h,46.8 IU/L
same,AST,3 h,90.8 IU/L
same,BUN,3 h,9.8 mg/dL
same,CRE,3 h,0.2 mg/dL
same,Ca,3 h,11 mg/dL
same,Cl,3 h,106.8 meq/L
same,DBIL,3 h,0.024 mg/dL
same,GLC,3 h,158.2 mg/dL
same,IP,3 h,9.1 mg/dL
same,K,3 h,3.7 meq/L
same,LDH,3 h,72.6 IU/L
same,Na,3 h,141.2 meq/L
same,PL,3 h,149.8 mg/dL
same,RALB,3 h,2.5 g/dL
same,TBIL,3 h,0.056 mg/dL
same,TC,3 h,76.8 mg/dL
same,TG,3 h,128.2 mg/dL
same,TP,3 h,5.6 g/dL
same,gamma-GTP,3 h,1 IU/L
same,TERMINAL_BW,6 h,206.4 g
same,APTT,6 h,14.9 s
same,Bas,6 h,0%
same,Eos,6 h,1%
same,Fbg,6 h,279.2 mg/dL
same,Hb,6 h,13 g/dL
same,Ht,6 h,38%
same,Lym,6 h,74.2%
same,MCH,6 h,21.4 pg
same,MCHC,6 h,34.1%
same,MCV,6 h,62.8 fL
same,Mono,6 h,2.6%
same,Neu,6 h,21.6%
same,PT,6 h,11.6 s
same,Plat,6 h,134.9 x10_4/uL
same,RBC,6 h,606 x10_4/ul
same,Ret,6 h,8%
same,WBC,6 h,104.9 x10_2/uL
same,KIDNEY_L,6 h,0.9 g
same,KIDNEY_R,6 h,0.9 g
same,KIDNEY_TOTAL,6 h,1.8 g
same,LIVER,6 h,8.5 g
same,A/G,6 h,0.8
same,ALP,6 h,1552.8 IU/L
same,ALT,6 h,35.2 IU/L
same,AST,6 h,75 IU/L
same,BUN,6 h,9 mg/dL
same,CRE,6 h,0.2 mg/dL
same,Ca,6 h,10.8 mg/dL
same,Cl,6 h,107.4 meq/L
same,DBIL,6 h,0.024 mg/dL
same,GLC,6 h,165 mg/dL
same,IP,6 h,10 mg/dL
same,K,6 h,4.2 meq/L
same,LDH,6 h,67 IU/L
same,Na,6 h,141.8 meq/L
same,PL,6 h,131.6 mg/dL
same,RALB,6 h,2.5 g/dL
same,TBIL,6 h,0.062 mg/dL
same,TC,6 h,71.2 mg/dL
same,TG,6 h,59.4 mg/dL
same,TP,6 h,5.7 g/dL
same,gamma-GTP,6 h,1.4 IU/L
same,TERMINAL_BW,9 h,204.2 g
same,APTT,9 h,14.5 s
same,Bas,9 h,0%
same,Eos,9 h,0.8%
same,Fbg,9 h,277 mg/dL
same,Hb,9 h,12.7 g/dL
same,Ht,9 h,37.3%
same,Lym,9 h,73.4%
same,MCH,9 h,21.1 pg
same,MCHC,9 h,34.2%
same,MCV,9 h,61.8 fL
same,Mono,9 h,1.8%
same,Neu,9 h,23.6%
same,PT,9 h,11.7 s
same,Plat,9 h,137.5 x10_4/uL
same,RBC,9 h,603.8 x10_4/ul
same,Ret,9 h,8%
same,WBC,9 h,65.4 x10_2/uL
same,KIDNEY_L,9 h,0.9 g
same,KIDNEY_R,9 h,0.9 g
same,KIDNEY_TOTAL,9 h,1.7 g
same,LIVER,9 h,7.8 g
same,A/G,9 h,0.8
same,ALP,9 h,1332.6 IU/L
same,ALT,9 h,27.4 IU/L
same,AST,9 h,64.4 IU/L
same,BUN,9 h,8.8 mg/dL
same,CRE,9 h,0.2 mg/dL
same,Ca,9 h,10.5 mg/dL
same,Cl,9 h,106.4 meq/L
same,DBIL,9 h,0.018 mg/dL
same,GLC,9 h,174.2 mg/dL
same,IP,9 h,10.5 mg/dL
same,K,9 h,4 meq/L
same,LDH,9 h,58.2 IU/L
same,Na,9 h,143 meq/L
same,PL,9 h,129.6 mg/dL
same,RALB,9 h,2.5 g/dL
same,TBIL,9 h,0.064 mg/dL
same,TC,9 h,77.8 mg/dL
same,TG,9 h,42.4 mg/dL
same,TP,9 h,5.6 g/dL
same,gamma-GTP,9 h,1 IU/L
same,TERMINAL_BW,24 h,219.7 g
same,APTT,24 h,12.6 s
same,Bas,24 h,0%
same,Eos,24 h,1%
same,Fbg,24 h,258.8 mg/dL
same,Hb,24 h,13.1 g/dL
same,Ht,24 h,37.9%
same,Lym,24 h,73.2%
same,MCH,24 h,21.2 pg
same,MCHC,24 h,34.5%
same,MCV,24 h,61.6 fL
same,Mono,24 h,1.8%
same,Neu,24 h,23.2%
same,PT,24 h,11.4 s
same,Plat,24 h,146.9 x10_4/uL
same,RBC,24 h,616.8 x10_4/ul
same,Ret,24 h,6.8%
same,WBC,24 h,88.9 x10_2/uL
same,KIDNEY_L,24 h,0.9 g
same,KIDNEY_R,24 h,0.9 g
same,KIDNEY_TOTAL,24 h,1.9 g
same,LIVER,24 h,9.5 g
same,A/G,24 h,0.9
same,ALP,24 h,1942.2 IU/L
same,ALT,24 h,38.6 IU/L
same,AST,24 h,74 IU/L
same,BUN,24 h,14.6 mg/dL
same,CRE,24 h,0.2 mg/dL
same,Ca,24 h,10.9 mg/dL
same,Cl,24 h,106.4 meq/L
same,DBIL,24 h,0.02 mg/dL
same,GLC,24 h,167 mg/dL
same,IP,24 h,7.7 mg/dL
same,K,24 h,3.9 meq/L
same,LDH,24 h,49.2 IU/L
same,Na,24 h,143.2 meq/L
same,PL,24 h,135.4 mg/dL
same,RALB,24 h,2.6 g/dL
same,TBIL,24 h,0.044 mg/dL
same,TC,24 h,72 mg/dL
same,TG,24 h,89.6 mg/dL
same,TP,24 h,5.5 g/dL
same,gamma-GTP,24 h,1 IU/L

# Reference: ChEMBL document CHEMBL3885861, “Open TG-GATES”
